According to article PMC7649747, “The startle disease mutation α1S270T predicts shortening of glycinergic synaptic currents” (The Journal of Physiology, 2020):
Substitutions are numbered along the chain they refer to.

Key:
homomeric α1 GlyR [1] = target: T1, homomeric α1 GlyR (Homo sapiens, UniProt P23415); test: whole-cell patch clamp, U-tube application, Hill fit of peak currents; format: cell-based
T1 construct: gene GLRA1; full-length subunit, pcDNA3.1, transient expression in HEK293A; homopentamer; eGFP from separate plasmid
T1 sequence (P23415 29-457): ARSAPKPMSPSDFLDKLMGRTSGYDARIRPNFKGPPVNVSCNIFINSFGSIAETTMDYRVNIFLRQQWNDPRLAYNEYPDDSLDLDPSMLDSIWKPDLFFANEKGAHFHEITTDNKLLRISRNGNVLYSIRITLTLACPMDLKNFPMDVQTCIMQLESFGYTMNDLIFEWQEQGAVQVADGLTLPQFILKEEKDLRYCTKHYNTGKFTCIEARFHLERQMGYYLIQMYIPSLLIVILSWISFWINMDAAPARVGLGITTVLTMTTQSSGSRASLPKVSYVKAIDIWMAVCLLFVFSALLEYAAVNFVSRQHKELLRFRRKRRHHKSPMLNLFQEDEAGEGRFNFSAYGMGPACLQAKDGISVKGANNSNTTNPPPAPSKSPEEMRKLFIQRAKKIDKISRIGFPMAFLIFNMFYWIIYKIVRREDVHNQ
From the text: (§1) whole-cell patch clamp, U-tube application, Hill fit of peak currents on homomeric α1 GlyR

homomeric α1 GlyR [2] = target: T2, homomeric α1 GlyR (Homo sapiens, UniProt P23415, S298T); test: as above; format: cell-based
T2 construct: gene GLRA1; full-length subunit, pcDNA3.1, transient expression in HEK293A; homopentamer; eGFP from separate plasmid
T2 sequence (P23415 29-457 S298T): T1 sequence (P23415 29-457) with S270T
From the text: as §1

EC50 (homomeric α1 GlyR [1]): 14 ± 6 mM
EC50 (homomeric α1 GlyR [2]): 23 ± 3 mM
SMILES: CNCC(=O)O [sarcosine]
